Measurements as given in ChEMBL document CHEMBL4229333, “Effects of rigidity on the selectivity of protein kinase inhibitors” (Eur J Med Chem, 2018).

Columns and labels:
[1] = target: Serine/threonine-protein kinase B-raf (Homo sapiens, UniProt P15056, V600E); test: Inhibition of full length FLAG-tagged BRAF V600E mutant (unknown origin) expressed in HEK293 cells assessed as decrease in MEK phosphorylation by immunoblotting assay; assay type: cell-based
[2] = target: RAC-beta serine/threonine-protein kinase (Homo sapiens) (UniProt P31751); test: Inhibition of AKT2 (unknown origin) at 1 uM by mobility shift microfluidics platform based assay relative to control
[3] = target: Tyrosine-protein kinase receptor UFO (Homo sapiens) (UniProt P30530); test: Inhibition of AXL (unknown origin) at 1 uM by mobility shift microfluidics platform based assay relative to control
[4] = target: Tyrosine-protein kinase BTK (Homo sapiens) (UniProt Q06187); test: Inhibition of BTK (unknown origin) at 1 uM by mobility shift microfluidics platform based assay relative to control
[5] = target: Calcium/calmodulin-dependent protein kinase type II subunit delta (Homo sapiens) (UniProt Q13557); test: Inhibition of CAMK2D (unknown origin) at 1 uM by mobility shift microfluidics platform based assay relative to control
[6] = target: Cyclin-dependent kinase 2 (Homo sapiens) (UniProt P24941); test: Inhibition of CDK2 (unknown origin) at 1 uM by mobility shift microfluidics platform based assay relative to control
[7] = target: RAF proto-oncogene serine/threonine-protein kinase (Homo sapiens) (UniProt P04049); test: Inhibition of CRAF (unknown origin) at 1 uM by mobility shift microfluidics platform based assay relative to control
[8] = target: Death-associated protein kinase 3 (Homo sapiens) (UniProt O43293); test: Inhibition of DAPK3 (unknown origin) at 1 uM by mobility shift microfluidics platform based assay relative to control
[9] = target: Epidermal growth factor receptor (Homo sapiens) (UniProt P00533); test: Inhibition of EGFR (unknown origin) at 1 uM by mobility shift microfluidics platform based assay relative to control
[10] = target: Ephrin type-B receptor 1 (Homo sapiens) (UniProt P54762); test: Inhibition of EPH-B1 (unknown origin) at 1 uM by mobility shift microfluidics platform based assay relative to control
[11] = target: Tyrosine-protein kinase Fer (Homo sapiens) (UniProt P16591); test: Inhibition of FER (unknown origin) at 1 uM by mobility shift microfluidics platform based assay relative to control
[12] = target: Fibroblast growth factor receptor 1 (Homo sapiens) (UniProt P11362); test: Inhibition of FGFR1 (unknown origin) at 1 uM by mobility shift microfluidics platform based assay relative to control
[13] = target: Tyrosine-protein kinase Fgr (Homo sapiens) (UniProt P09769); test: Inhibition of FGR (unknown origin) at 1 uM by mobility shift microfluidics platform based assay relative to control
[14] = target: Vascular endothelial growth factor receptor 3 (Homo sapiens) (UniProt P35916); test: Inhibition of FLT4 (unknown origin) at 1 uM by mobility shift microfluidics platform based assay relative to control
[15] = target: Insulin-like growth factor 1 receptor (Homo sapiens) (UniProt P08069); test: Inhibition of IGF1R (unknown origin) at 1 uM by mobility shift microfluidics platform based assay relative to control
[16] = target: Inhibitor of nuclear factor kappa-B kinase subunit alpha (Homo sapiens) (UniProt O15111); test: Inhibition of IKK-alpha (unknown origin) at 1 uM by mobility shift microfluidics platform based assay relative to control
[17] = target: Tyrosine-protein kinase JAK3 (Homo sapiens) (UniProt P52333); test: Inhibition of JAK3 (unknown origin) at 1 uM by mobility shift microfluidics platform based assay relative to control
[18] = target: Serine/threonine-protein kinase LATS1 (Homo sapiens) (UniProt O95835); test: Inhibition of LATS1 (unknown origin) at 1 uM by mobility shift microfluidics platform based assay relative to control
[19] = target: Tyrosine-protein kinase Lck (Homo sapiens) (UniProt P06239); test: Inhibition of LCK (unknown origin) at 1 uM by mobility shift microfluidics platform based assay relative to control
[20] = target: Mitogen-activated protein kinase kinase kinase kinase 4 (Homo sapiens) (UniProt O95819); test: Inhibition of MAP4K4 (unknown origin) at 1 uM by mobility shift microfluidics platform based assay relative to control
[21] = target: Maternal embryonic leucine zipper kinase (Homo sapiens) (UniProt Q14680); test: Inhibition of MELK (unknown origin) at 1 uM by mobility shift microfluidics platform based assay relative to control
[22] = target: Serine/threonine-protein kinase 4 (Homo sapiens) (UniProt Q13043); test: Inhibition of MST1 (unknown origin) at 1 uM by mobility shift microfluidics platform based assay relative to control
[23] = target: Serine/threonine-protein kinase Nek2 (Homo sapiens) (UniProt P51955); test: Inhibition of NEK2 (unknown origin) at 1 uM by mobility shift microfluidics platform based assay relative to control
[24] = target: Serine/threonine-protein kinase PAK 4 (Homo sapiens) (UniProt O96013); test: Inhibition of PAK4 (unknown origin) at 1 uM by mobility shift microfluidics platform based assay relative to control
[25] = target: Serine/threonine-protein kinase PLK1 (Homo sapiens) (UniProt P53350); test: Inhibition of PLK1 (unknown origin) at 1 uM by mobility shift microfluidics platform based assay relative to control
[26] = target: cAMP-dependent protein kinase catalytic subunit alpha (Homo sapiens) (UniProt P17612); test: Inhibition of PRKACA (unknown origin) at 1 uM by mobility shift microfluidics platform based assay relative to control
[27] = target: Ribosomal protein S6 kinase alpha-3 (Homo sapiens) (UniProt P51812); test: Inhibition of RSK2 (unknown origin) at 1 uM by mobility shift microfluidics platform based assay relative to control
[28] = target: Proto-oncogene tyrosine-protein kinase Src (Homo sapiens) (UniProt P12931); test: Inhibition of SRC (unknown origin) at 1 uM by mobility shift microfluidics platform based assay relative to control
[29] = target: SRSF protein kinase 2 (Homo sapiens) (UniProt P78362); test: Inhibition of SRPK2 (unknown origin) at 1 uM by mobility shift microfluidics platform based assay relative to control
[30] = target: Tyrosine-protein kinase Tec (Homo sapiens) (UniProt P42680); test: Inhibition of TEC (unknown origin) at 1 uM by mobility shift microfluidics platform based assay relative to control
[31] = target: BDNF/NT-3 growth factors receptor (Homo sapiens) (UniProt Q16620); test: Inhibition of TRKB (unknown origin) at 1 uM by mobility shift microfluidics platform based assay relative to control
[32] = target: Dual specificity protein kinase TTK (Homo sapiens) (UniProt P33981); test: Inhibition of TTK (unknown origin) at 1 uM by mobility shift microfluidics platform based assay relative to control
[33] = test system: Serine/threonine-protein kinase B-raf (Homo sapiens), P15056 [V600E]; test: Ratio of IC50 for inhibition of BRAF V600E mutant (unknown origin) after 20 mins by immunoblotting assay to IC50 for inhibition of full length FLAG-tagged BRAF V600E mutant (unknown origin) expressed in HEK293 cells assessed as decrease in MEK phosphorylation by immunoblotting assay; assay type: cell-based

Chain of Tyrosine-protein kinase BTK (Homo sapiens) (Q06187 whole entry): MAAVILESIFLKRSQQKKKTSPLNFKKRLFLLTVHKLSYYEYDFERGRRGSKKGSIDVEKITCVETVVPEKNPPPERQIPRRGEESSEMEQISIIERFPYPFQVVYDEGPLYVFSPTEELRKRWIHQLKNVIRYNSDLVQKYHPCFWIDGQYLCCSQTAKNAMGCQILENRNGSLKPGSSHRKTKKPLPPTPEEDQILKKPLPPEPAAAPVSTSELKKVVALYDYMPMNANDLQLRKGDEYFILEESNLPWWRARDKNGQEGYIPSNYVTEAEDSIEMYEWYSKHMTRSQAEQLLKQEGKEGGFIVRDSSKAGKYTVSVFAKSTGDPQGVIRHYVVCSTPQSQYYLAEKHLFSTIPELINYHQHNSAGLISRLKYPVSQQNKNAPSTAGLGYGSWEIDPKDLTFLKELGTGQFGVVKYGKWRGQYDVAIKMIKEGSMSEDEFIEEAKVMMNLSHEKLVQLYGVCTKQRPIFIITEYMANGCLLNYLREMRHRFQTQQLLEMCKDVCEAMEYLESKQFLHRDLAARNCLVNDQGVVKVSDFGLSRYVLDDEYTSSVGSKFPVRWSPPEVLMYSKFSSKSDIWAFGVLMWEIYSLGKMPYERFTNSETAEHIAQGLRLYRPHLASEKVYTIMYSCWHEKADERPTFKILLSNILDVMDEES
Chain of Epidermal growth factor receptor (Homo sapiens) (P00533 whole entry): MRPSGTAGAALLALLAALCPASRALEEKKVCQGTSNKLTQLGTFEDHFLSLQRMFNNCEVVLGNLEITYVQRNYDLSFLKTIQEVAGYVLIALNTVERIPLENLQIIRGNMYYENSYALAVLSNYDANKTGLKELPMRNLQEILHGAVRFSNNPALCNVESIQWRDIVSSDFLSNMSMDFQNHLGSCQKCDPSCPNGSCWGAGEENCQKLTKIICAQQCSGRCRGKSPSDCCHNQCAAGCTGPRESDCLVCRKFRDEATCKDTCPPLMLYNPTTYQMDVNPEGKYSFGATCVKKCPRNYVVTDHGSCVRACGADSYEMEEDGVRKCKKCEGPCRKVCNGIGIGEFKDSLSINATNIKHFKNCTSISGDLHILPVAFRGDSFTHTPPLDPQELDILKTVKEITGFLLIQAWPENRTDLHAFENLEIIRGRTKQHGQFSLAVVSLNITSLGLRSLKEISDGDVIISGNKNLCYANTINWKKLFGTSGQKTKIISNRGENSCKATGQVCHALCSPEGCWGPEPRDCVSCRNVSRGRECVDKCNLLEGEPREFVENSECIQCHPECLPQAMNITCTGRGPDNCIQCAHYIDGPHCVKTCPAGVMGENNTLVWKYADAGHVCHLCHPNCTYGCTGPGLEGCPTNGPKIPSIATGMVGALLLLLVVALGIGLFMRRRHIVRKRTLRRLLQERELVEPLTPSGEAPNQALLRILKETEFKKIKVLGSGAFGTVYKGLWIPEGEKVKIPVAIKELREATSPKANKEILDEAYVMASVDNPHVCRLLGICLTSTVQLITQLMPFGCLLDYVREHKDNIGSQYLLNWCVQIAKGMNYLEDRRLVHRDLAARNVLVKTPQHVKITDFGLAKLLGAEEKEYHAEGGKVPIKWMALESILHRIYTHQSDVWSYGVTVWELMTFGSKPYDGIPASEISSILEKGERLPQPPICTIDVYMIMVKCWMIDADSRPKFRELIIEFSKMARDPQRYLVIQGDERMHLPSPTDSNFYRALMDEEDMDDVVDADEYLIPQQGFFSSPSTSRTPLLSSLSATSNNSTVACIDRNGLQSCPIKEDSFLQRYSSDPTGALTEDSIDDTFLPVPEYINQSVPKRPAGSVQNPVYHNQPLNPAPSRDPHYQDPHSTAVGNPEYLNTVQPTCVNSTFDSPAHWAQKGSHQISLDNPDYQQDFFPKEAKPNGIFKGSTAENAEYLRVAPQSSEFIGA
Chain of Tyrosine-protein kinase receptor UFO (Homo sapiens) (P30530 whole entry): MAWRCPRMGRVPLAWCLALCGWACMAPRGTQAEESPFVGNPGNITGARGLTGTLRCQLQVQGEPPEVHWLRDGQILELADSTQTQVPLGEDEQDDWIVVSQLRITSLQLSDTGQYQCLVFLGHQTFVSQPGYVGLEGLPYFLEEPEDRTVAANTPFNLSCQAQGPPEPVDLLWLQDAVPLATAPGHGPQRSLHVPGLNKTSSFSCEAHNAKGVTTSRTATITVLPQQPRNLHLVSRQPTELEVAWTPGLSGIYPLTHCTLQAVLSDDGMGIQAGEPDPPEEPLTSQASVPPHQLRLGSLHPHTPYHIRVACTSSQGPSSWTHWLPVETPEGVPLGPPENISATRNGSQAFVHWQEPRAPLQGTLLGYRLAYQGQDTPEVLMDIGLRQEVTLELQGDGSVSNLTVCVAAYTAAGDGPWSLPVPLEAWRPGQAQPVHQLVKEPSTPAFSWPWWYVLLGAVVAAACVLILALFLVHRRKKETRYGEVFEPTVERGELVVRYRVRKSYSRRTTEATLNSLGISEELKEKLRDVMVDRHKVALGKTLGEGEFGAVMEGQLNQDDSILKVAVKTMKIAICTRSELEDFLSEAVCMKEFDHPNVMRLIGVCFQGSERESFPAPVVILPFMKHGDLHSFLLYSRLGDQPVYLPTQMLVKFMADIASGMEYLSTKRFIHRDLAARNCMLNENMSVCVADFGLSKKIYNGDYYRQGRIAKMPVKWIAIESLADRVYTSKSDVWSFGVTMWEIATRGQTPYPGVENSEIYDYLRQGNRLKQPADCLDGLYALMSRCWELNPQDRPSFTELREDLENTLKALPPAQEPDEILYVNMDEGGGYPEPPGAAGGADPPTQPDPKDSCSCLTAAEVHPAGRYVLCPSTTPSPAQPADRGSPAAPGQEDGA
Chain of Dual specificity protein kinase TTK (Homo sapiens) (P33981 whole entry): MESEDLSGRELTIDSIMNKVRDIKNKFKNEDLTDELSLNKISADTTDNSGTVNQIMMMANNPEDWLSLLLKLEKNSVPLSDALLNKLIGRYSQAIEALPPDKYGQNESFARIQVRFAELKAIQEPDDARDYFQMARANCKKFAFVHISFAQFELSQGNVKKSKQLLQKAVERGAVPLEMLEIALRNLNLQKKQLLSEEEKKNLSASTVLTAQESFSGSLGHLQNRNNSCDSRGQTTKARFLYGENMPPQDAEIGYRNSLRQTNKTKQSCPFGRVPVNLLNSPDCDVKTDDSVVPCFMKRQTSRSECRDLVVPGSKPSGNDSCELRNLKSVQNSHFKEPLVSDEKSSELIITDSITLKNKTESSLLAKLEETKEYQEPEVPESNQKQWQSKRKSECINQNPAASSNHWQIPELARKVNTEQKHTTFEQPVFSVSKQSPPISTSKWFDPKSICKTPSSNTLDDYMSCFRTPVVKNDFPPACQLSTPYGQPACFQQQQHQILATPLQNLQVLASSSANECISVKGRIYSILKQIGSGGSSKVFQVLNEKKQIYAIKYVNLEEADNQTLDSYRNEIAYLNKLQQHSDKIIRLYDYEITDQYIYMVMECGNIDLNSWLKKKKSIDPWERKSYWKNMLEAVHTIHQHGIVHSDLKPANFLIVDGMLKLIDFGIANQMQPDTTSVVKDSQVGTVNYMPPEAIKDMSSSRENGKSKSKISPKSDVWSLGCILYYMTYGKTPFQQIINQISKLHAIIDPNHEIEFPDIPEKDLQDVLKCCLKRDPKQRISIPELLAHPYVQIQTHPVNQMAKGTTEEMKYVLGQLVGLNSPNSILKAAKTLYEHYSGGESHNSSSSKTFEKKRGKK
Chain of Insulin-like growth factor 1 receptor (Homo sapiens) (P08069 31-736 limits assumed): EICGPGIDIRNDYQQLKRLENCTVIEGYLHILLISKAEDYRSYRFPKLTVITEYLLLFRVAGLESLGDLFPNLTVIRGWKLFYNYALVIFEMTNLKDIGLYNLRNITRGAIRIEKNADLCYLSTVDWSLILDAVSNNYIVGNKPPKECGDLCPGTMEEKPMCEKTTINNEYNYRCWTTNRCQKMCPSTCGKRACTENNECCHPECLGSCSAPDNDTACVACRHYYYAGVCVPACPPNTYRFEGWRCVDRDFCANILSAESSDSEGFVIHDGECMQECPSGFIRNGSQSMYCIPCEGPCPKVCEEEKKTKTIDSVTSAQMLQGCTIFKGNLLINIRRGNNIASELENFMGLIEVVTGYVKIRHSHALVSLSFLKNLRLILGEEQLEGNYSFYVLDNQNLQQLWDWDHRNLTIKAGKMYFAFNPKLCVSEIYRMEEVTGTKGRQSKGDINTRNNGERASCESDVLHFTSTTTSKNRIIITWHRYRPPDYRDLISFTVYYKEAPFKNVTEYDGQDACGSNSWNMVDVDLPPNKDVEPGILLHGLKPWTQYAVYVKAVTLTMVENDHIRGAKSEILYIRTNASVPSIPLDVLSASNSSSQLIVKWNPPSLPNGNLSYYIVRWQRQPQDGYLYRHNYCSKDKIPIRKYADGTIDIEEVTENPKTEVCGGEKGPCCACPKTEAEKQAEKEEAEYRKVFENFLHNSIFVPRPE
Chain of Insulin-like growth factor 1 receptor (Homo sapiens) (P08069 741-1367 limits assumed): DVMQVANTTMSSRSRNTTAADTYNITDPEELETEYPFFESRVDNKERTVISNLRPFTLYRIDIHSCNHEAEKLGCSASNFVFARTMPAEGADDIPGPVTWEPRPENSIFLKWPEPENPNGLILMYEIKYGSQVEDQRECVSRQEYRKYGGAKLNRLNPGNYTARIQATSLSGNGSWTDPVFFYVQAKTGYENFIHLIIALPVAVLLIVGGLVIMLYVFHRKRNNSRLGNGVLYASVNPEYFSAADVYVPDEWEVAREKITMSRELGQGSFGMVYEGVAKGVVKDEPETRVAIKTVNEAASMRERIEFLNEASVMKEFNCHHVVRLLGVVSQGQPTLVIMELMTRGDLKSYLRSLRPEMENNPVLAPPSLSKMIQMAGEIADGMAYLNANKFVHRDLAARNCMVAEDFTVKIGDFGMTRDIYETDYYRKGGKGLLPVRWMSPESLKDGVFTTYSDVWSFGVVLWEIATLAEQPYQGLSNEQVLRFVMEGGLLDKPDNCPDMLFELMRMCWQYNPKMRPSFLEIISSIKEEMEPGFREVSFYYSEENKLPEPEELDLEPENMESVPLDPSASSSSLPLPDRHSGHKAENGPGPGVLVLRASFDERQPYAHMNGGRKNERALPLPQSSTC

Row | IC50 [1] | inhibition [2] | inhibition [3] | inhibition [4] | inhibition [5] | inhibition [6] | inhibition [7] | inhibition [9] | inhibition [10] | inhibition [11] | inhibition [12] | inhibition [13] | inhibition [14] | inhibition [15] | inhibition [16] | inhibition [17] | inhibition [18] | inhibition [19] | inhibition [20] | SMILES | inhibition [8] | other results
1 | 2 nM | 0% | 12% | 71% | -1% | 3% | 118% | 55% | 97% | 40% | 98% | 99% | 99% | 1% | 26% | 30% | -4% | 100% | 69% | CC(C)n1nc(C#Cc2cccc(NC(=O)c3cccc(C(F)(F)F)c3)c2)c2c(N)ncnc21 | 11% | inhibition [21]: -3%; inhibition [22]: 10%; inhibition [23]: -1%; inhibition [24]: 0%; inhibition [25]: 1%; inhibition [26]: 2%; inhibition [27]: 0%; inhibition [28]: 100%; inhibition [29]: -1%; inhibition [30]: 40%; inhibition [31]: 43%; inhibition [32]: 33%; Ratio IC50 [33]: 2 to 4
2 | 14 nM | -10% | 2% | 5% | 0% | 1% | 101% | 3% | 84% | 12% | 91% | 71% | 97% | 2% | -3% | 10% | 3% | 85% | 3% | CC(C)n1nc(C#Cc2cccc3cc(-c4cccc(C(F)(F)F)c4)ncc23)c2c(N)ncnc21 | 11% | inhibition [21]: 2%; inhibition [22]: 4%; inhibition [23]: 0%; inhibition [24]: 2%; inhibition [25]: 1%; inhibition [26]: 4%; inhibition [27]: 0%; inhibition [28]: 80%; inhibition [29]: -1%; inhibition [30]: 2%; inhibition [31]: 13%; inhibition [32]: -3%; Ratio IC50 [33]: 2 to 4
